Experimental data reported in PMC6429202, “Drug-1,3,4-Thiadiazole Conjugates as Novel Mixed-Type Inhibitors of Acetylcholinesterase: Synthesis, Molecular Docking, Pharmacokinetics, and ADMET Evaluation” (Molecules, 2019).
Like-named read-outs stand apart in the source and are kept apart here.

Experiments:
[1] = biological target: T1, AChE from human erythrocytes (Homo sapiens, UniProt P22303); assay: Acetylcholinesterase inhibition assay (Ellman method); format: biochemical
T1 construct: AChE from human erythrocytes; from tissue; host or cells: human erythrocytes
Experimental: The inhibitory activities of the synthesized compounds were analyzed spectrophotometrically using acetylthiocholine iodide as the substrate by following the method of Ellman et al.. In general, the reaction mixture comprised 180 µL of 50 mM of Tris HCl buffer (pH 8.0) with 0.1 M of sodium chloride and 0.02 M of magnesium chloride, to which 20 µL of enzyme (AChE, EC 3.1.1.7, AChE from human erythrocytes) solution was added (50 U in each well). The synthesized compounds (10 µL at the concentration being tested for their impact on growth) were added to the reaction mixture, and the mixtures were pre-incubated for 30 min at 4 °C. Then, 5,5′-dithiobis(2-nitrobenzoic acid) (0.3 mM, 20 µL) and acetylthiocholine iodide (1.8 mM, 20 µL) were added to the assay solution, and the mixtures were incubated at 37 °C for 10 min. After the incubation period, the absorbance of each well was measured at 412 nm. For the non-enzymatic reaction, the assays were carried out with a blank containing all the components except AChE. The assay measurements were collected at […] using a microplate reader (OPTI Max, Tunable, Molecular Devices, Sunnyvale, CA, USA). IC50 values were calculated using GraphPad Prism 5.0 through non-linear regression. Each experiment was performed in triplicate.
The percentage of inhibition of […] was calculated: inhibition (%) = [(Blank−Sample)/Blank] × 100.

[2] = DPPH free radical scavenging assay; conditions: tested at 100 µg/mL; compared with vitamin C
Experimental: The synthesized compounds were further evaluated for their 2,2-diphenyl-1-picrylhydrazyl (DPPH) radical scavenging capacity. To evaluate their DPPH inhibition abilities, a radical scavenging assay was performed. The assay mixtures contained 20 µL of increasing concentrations of the test compounds and 100 µL of DPPH (150 µM), and the total volume of each well was brought up to 200 µL with methanol. Then, the mixture was incubated for 30 min at room temperature. For comparison and assay validity, ascorbic acid (vitamin C) was used as a positive control. The absorbance was recorded at 517 nm using a microplate reader (OPTI Max, Tunable). The results were calculated as percent inhibition. All of the concentrations were evaluated in triplicate.

[3] = biological target: T1, AChE from human erythrocytes; assay: Kinetic study of AChE inhibition (Lineweaver–Burk plots); format: biochemical; conditions: for Vmax: substrate acetylthiocholine iodide
Experimental: To determine the inhibition mechanism, a kinetic study was carried out. Compound 3b was selected from the synthesized compounds for kinetic analysis to determine its inhibition potential. The identification of the inhibition mode of compound 3b began by using a series of concentrations of acetylthiocholine iodide (0.00 µM, 0.009 µM, 0.018 µM, and 0.036 µM) with various concentrations of 3b. […] The highest reaction rates were calculated from the initial linear portion of the absorbance plot, which represented the five minutes following the addition of the enzyme, and absorbance data were collected at 30-second intervals. The type of enzyme inhibition was determined from the Lineweaver–Burk plots of the inverse of velocity (1/V) versus the inverse of substrate concentration (1/[S] mM^−1).
The efficiency of 3b in blocking the free enzyme and enzyme–substrate complex was investigated in terms of its enzyme inhibition (EI) and enzyme–substrate inhibition (ESI) constants. […] The plots of the effects of complex 3b were linear and appeared in the second quadrant.

[4] = mean ± SEM, triplicate, substrate acetylthiocholine iodide, read-out: Acetylcholine Esterase (from Human Erythrocytes) IC50 ± SEM

T1 sequence (P22303 other isoform, or with tags, fused parts or gaps): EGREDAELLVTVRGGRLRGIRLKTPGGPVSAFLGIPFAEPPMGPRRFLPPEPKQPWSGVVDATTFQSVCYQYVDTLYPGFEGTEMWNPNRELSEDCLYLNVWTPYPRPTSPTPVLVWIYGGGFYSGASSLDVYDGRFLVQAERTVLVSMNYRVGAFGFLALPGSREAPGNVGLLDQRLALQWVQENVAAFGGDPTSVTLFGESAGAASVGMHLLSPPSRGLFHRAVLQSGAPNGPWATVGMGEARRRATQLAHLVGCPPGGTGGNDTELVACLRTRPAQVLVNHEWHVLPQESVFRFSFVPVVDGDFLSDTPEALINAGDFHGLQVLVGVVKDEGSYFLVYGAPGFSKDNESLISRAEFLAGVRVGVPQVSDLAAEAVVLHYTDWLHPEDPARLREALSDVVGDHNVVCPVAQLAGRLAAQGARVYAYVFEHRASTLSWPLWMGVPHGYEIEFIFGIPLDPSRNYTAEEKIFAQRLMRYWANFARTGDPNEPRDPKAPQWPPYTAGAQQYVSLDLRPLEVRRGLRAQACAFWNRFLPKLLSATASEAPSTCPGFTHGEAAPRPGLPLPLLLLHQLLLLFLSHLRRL

Compound | IC50 [1, 4] | also measured
Nc1nnc(-c2cn(C3CC3)c3cc(N4CCNCC4)c(F)cc3c2=O)s1 [Compound 3a, 3-(5-amino-1,3,4-thiadiazol-2-yl)-1-cyclopropyl-6-fluoro-7-(piperazin-1-yl)quinolin-4(1H)-one] | – | IC50 [1]: 0.126 ± 0.0036 µM; Free radical scavenging potency (DPPH) [2]: excellent radical scavenging potency
C[C@@H]1COc2c(N3CCNCC3)c(F)cc3c(=O)c(-c4nnc(N)s4)cn1c23 [Compound 3b, (R)-6-(5-amino-1,3,4-thiadiazol-2-yl)-9-fluoro-3-methyl-10-(piperazin-1-yl)-2H-[1,4]oxazino[2,3,4-ij]quinolin-7(3H)-one] | 0.0181 ± 0.0009 µM | Vmax ([3]; 3b concentration 0.009 µM): 0.000467 ΔA/Sec; Vmax ([3]; 3b concentration 0.018 µM): 0.000343 ΔA/Sec; Vmax ([3]; 3b concentration 0.036 µM): 0.000183 ΔA/Sec; Mode of inhibition of AChE ([3]; Lineweaver–Burk analysis): mixed mode of inhibition; Ki ([3]; from plot of slope versus inhibitor concentration, read-out: Ki (EI dissociation constant)): 0.0031 µM; Free radical scavenging potency (DPPH) [2]: excellent radical scavenging potency
C[C@@H]1COc2c(N3CCN(C)CC3)c(F)cc3c(=O)c(-c4nnc(N)s4)cn1c23 [Compound 3c, (R)-6-(5-amino-1,3,4-thiadiazol-2-yl)-9-fluoro-3-methyl-10-(4-methylpiperazin-1-yl)-2H-[1,4]oxazino[2,3,4-ij]quinolin-7(3H)-one] | 0.5763 ± 0.0036 µM | –
CC(C)Cc1ccc(C(C)c2nnc(N)s2)cc1 (stereo not shown) [Compound 3d, 5-(1-(4-isobutylphenyl)ethyl)-1,3,4-thiadiazol-2-amine] | 2.24 ± 0.112 µM | –
COc1ccc2cc([C@H](C)c3nnc(N)s3)ccc2c1 [Compound 3e, (S)-5-(1-(6-methoxynaphthalen-2-yl)ethyl)-1,3,4-thiadiazol-2-amine] | 3.81 ± 0.19 µM | –
Nc1nnc(COCCN2CCN(C(c3ccccc3)c3ccc(Cl)cc3)CC2)s1 (stereo not shown) [Compound 3f, 5-((2-(4-((4-chlorophenyl)(phenyl)methyl)piperazin-1-yl)ethoxy)methyl)-1,3,4-thiadiazol-2-amine] | 17.3 ± 0.863 µM | –
Nc1nnc(-c2cn(C3CC3)c3cc(N4CCN(C(=O)c5cccc([N+](=O)[O-])c5)CC4)c(F)cc3c2=O)s1 [Compound 3g, 3-(5-amino-1,3,4-thiadiazol-2-yl)-1-cyclopropyl-6-fluoro-7-(4-(3-nitrobenzoyl)piperazin-1-yl)qui nolin-4(1H)-one] | 1.18 ± 0.0591 µM | –
COc1ccc(C(=O)N2CCN(c3cc4c(cc3F)c(=O)c(-c3nnc(N)s3)cn4C3CC3)CC2)cc1 [Compound 3h, 3-(5-amino-1,3,4-thiadiazol-2-yl)-1-cyclopropyl-6-fluoro-7-(4-(4-methoxybenzoyl)piperazin-1-yl)quinolin-4(1H)-one] | 1.71 ± 0.0865 µM | –
Nc1nnc(-c2cn(C3CC3)c3cc(N4CCN(C(=O)c5ccc(Cl)cc5Cl)CC4)c(F)cc3c2=O)s1 [Compound 3i, 3-(5-amino-1,3,4-thiadiazol-2-yl)-1-cyclopropyl-7-(4-(2,4-dichlorobenzoyl)piperazin-1-yl)-6-fluoroquinolin-4(1H)-one] | 29.2 ± 1.46 µM | –
